Experimental data: PubChem BioAssay (NCI)
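Five concentrations, 48 hours, 96-well plates. At the GI50, growth is halved. The concentration for full growth arrest is given as TGI.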

What was measured:
Test in all cases: DTP human tumour cell line panel, 48 h
786-0 renal = system: 786-0 renal
A498 renal = system: A498 renal
A549 NSCLC = system: A549 NSCLC
ACHN renal = system: ACHN renal
BT-549 breast = system: BT-549 breast
CCRF-CEM leukemia = system: CCRF-CEM leukemia
COLO 205 colon = system: COLO 205 colon
DU-145 prostate = system: DU-145 prostate
EKVX NSCLC = system: EKVX NSCLC
HCC-2998 colon = system: HCC-2998 colon
HCT-116 colon = system: HCT-116 colon
HCT-15 colon = system: HCT-15 colon
HL-60(TB) leukemia = system: HL-60(TB) leukemia
HOP-62 NSCLC = system: HOP-62 NSCLC
HOP-92 NSCLC = system: HOP-92 NSCLC
HS 578T breast = system: HS 578T breast
HT29 colon = system: HT29 colon
IGROV1 ovarian = system: IGROV1 ovarian
K-562 leukemia = system: K-562 leukemia
KM12 colon = system: KM12 colon
LOX IMVI melanoma = system: LOX IMVI melanoma
M14 melanoma = system: M14 melanoma
MALME-3M melanoma = system: MALME-3M melanoma
MCF7 breast = system: MCF7 breast
MDA-MB-231 breast = system: MDA-MB-231 breast
MDA-MB-435 = system: MDA-MB-435
MOLT-4 leukemia = system: MOLT-4 leukemia
NCI-H226 lung = system: NCI-H226 lung
NCI-H23 lung = system: NCI-H23 lung
NCI-H460 lung = system: NCI-H460 lung
NCI-H522 lung = system: NCI-H522 lung
NCI/ADR-RES ovarian = system: NCI/ADR-RES ovarian
OVCAR-3 ovarian = system: OVCAR-3 ovarian
OVCAR-4 ovarian = system: OVCAR-4 ovarian
OVCAR-5 ovarian = system: OVCAR-5 ovarian
OVCAR-8 ovarian = system: OVCAR-8 ovarian
PC-3 prostate = system: PC-3 prostate
RPMI-8226 leukemia = system: RPMI-8226 leukemia
RXF 393 renal = system: RXF 393 renal
SF-268 CNS = system: SF-268 CNS
SF-295 CNS = system: SF-295 CNS
SF-539 CNS = system: SF-539 CNS
SK-MEL-2 melanoma = system: SK-MEL-2 melanoma
SK-MEL-28 melanoma = system: SK-MEL-28 melanoma
SK-MEL-5 melanoma = system: SK-MEL-5 melanoma
SK-OV-3 ovarian = system: SK-OV-3 ovarian
SN12C renal = system: SN12C renal
SNB-19 CNS = system: SNB-19 CNS
SNB-75 CNS = system: SNB-75 CNS
SR leukemia = system: SR leukemia
SW-620 colon = system: SW-620 colon
T-47D breast = system: T-47D breast
TK-10 renal = system: TK-10 renal
U251 CNS = system: U251 CNS
UACC-257 melanoma = system: UACC-257 melanoma
UACC-62 melanoma = system: UACC-62 melanoma
UO-31 renal = system: UO-31 renal

SMILES: Cc1cc(N2CCOCC2)nc(N[C@@H]2CCC[C@H](Nc3ccnc4cc(Cl)ccc34)C2)n1
- GI50 (786-0 renal): 1.73 µM
- TGI (786-0 renal): 3.27 µM
- GI50 (A498 renal): 1.57 µM
- TGI (A498 renal): 4.4 µM
- GI50 (A549 NSCLC): 3.31 µM
- TGI (A549 NSCLC): 8.56 µM
- GI50 (ACHN renal): 1.89 µM
- TGI (ACHN renal): 3.91 µM
- GI50 (BT-549 breast): 2.34 µM
- TGI (BT-549 breast): 5.01 µM
- GI50 (CCRF-CEM leukemia): 3.31 µM
- TGI (CCRF-CEM leukemia): 9.25 µM
- GI50 (COLO 205 colon): 1.68 µM
- TGI (COLO 205 colon): 3.33 µM
- GI50 (DU-145 prostate): 3.82 µM
- TGI (DU-145 prostate): 14.7 µM
- GI50 (EKVX NSCLC): 2.86 µM
- TGI (EKVX NSCLC): 13.2 µM
- GI50 (HCC-2998 colon): 2.05 µM
- TGI (HCC-2998 colon): 4.55 µM
- GI50 (HCT-116 colon): 1.98 µM
- TGI (HCT-116 colon): 4.26 µM
- GI50 (HCT-15 colon): 1.4 µM
- TGI (HCT-15 colon): 3.54 µM
- GI50 (HL-60(TB) leukemia): 1.98 µM
- TGI (HL-60(TB) leukemia): 3.87 µM
- GI50 (HOP-62 NSCLC): 1.73 µM
- TGI (HOP-62 NSCLC): 4.36 µM
- GI50 (HOP-92 NSCLC): 1.44 µM
- TGI (HOP-92 NSCLC): 3.08 µM
- GI50 (HS 578T breast): 1.84 µM
- TGI (HS 578T breast): 5.14 µM
- GI50 (HT29 colon): 2.13 µM
- TGI (HT29 colon): 5.24 µM
- GI50 (IGROV1 ovarian): 2.23 µM
- TGI (IGROV1 ovarian): 6.6 µM
- GI50 (K-562 leukemia): 1.21 µM
- TGI (K-562 leukemia): 3.69 µM
- GI50 (KM12 colon): 3.06 µM
- TGI (KM12 colon): 10.8 µM
- GI50 (LOX IMVI melanoma): 1.71 µM
- TGI (LOX IMVI melanoma): 3.3 µM
- GI50 (M14 melanoma): 2 µM
- TGI (M14 melanoma): 3.7 µM
- GI50 (MALME-3M melanoma): 1.95 µM
- TGI (MALME-3M melanoma): 3.67 µM
- GI50 (MCF7 breast): 1.76 µM
- TGI (MCF7 breast): 4.15 µM
- GI50 (MDA-MB-231 breast): 1.7 µM
- TGI (MDA-MB-231 breast): 3.58 µM
- GI50 (MDA-MB-435): 1.86 µM
- TGI (MDA-MB-435): 3.39 µM
- GI50 (MOLT-4 leukemia): 2.28 µM
- TGI (MOLT-4 leukemia): 7.19 µM
- GI50 (NCI-H226 lung): 4.89 µM
- TGI (NCI-H226 lung): 17.1 µM
- GI50 (NCI-H23 lung): 5.97 µM
- TGI (NCI-H23 lung): 21.2 µM
- GI50 (NCI-H460 lung): 2.66 µM
- TGI (NCI-H460 lung): 8.64 µM
- GI50 (NCI-H522 lung): 2.97 µM
- TGI (NCI-H522 lung): 6.23 µM
- GI50 (NCI/ADR-RES ovarian): 2.59 µM
- TGI (NCI/ADR-RES ovarian): 8 µM
- GI50 (OVCAR-3 ovarian): 2.83 µM
- TGI (OVCAR-3 ovarian): 8.62 µM
- GI50 (OVCAR-4 ovarian): 2.8 µM
- TGI (OVCAR-4 ovarian): 10.8 µM
- GI50 (OVCAR-5 ovarian): 3.1 µM
- TGI (OVCAR-5 ovarian): 11.2 µM
- GI50 (OVCAR-8 ovarian): 2.97 µM
- TGI (OVCAR-8 ovarian): 8.49 µM
- GI50 (PC-3 prostate): 2.38 µM
- TGI (PC-3 prostate): 6.01 µM
- GI50 (RPMI-8226 leukemia): 2.09 µM
- TGI (RPMI-8226 leukemia): 5.25 µM
- GI50 (RXF 393 renal): 1.44 µM
- TGI (RXF 393 renal): 3.11 µM
- GI50 (SF-268 CNS): 1.59 µM
- TGI (SF-268 CNS): 4.44 µM
- GI50 (SF-295 CNS): 1.52 µM
- TGI (SF-295 CNS): 2.97 µM
- GI50 (SF-539 CNS): 1.61 µM
- TGI (SF-539 CNS): 3.09 µM
- GI50 (SK-MEL-2 melanoma): 2.07 µM
- TGI (SK-MEL-2 melanoma): 4.02 µM
- GI50 (SK-MEL-28 melanoma): 2.01 µM
- TGI (SK-MEL-28 melanoma): 3.8 µM
- GI50 (SK-MEL-5 melanoma): 1.86 µM
- TGI (SK-MEL-5 melanoma): 3.27 µM
- GI50 (SK-OV-3 ovarian): 3.44 µM
- TGI (SK-OV-3 ovarian): 11.9 µM
- GI50 (SN12C renal): 2.48 µM
- TGI (SN12C renal): 8.68 µM
- GI50 (SNB-19 CNS): 3.35 µM
- TGI (SNB-19 CNS): 12.2 µM
- GI50 (SNB-75 CNS): 1.6 µM
- TGI (SNB-75 CNS): 4.01 µM
- GI50 (SR leukemia): 1.05 µM
- TGI (SR leukemia): 3.83 µM
- GI50 (SW-620 colon): 2.07 µM
- TGI (SW-620 colon): 5.36 µM
- GI50 (T-47D breast): 1.68 µM
- TGI (T-47D breast): 3.71 µM
- GI50 (TK-10 renal): 2.15 µM
- TGI (TK-10 renal): 4.09 µM
- GI50 (U251 CNS): 2.1 µM
- TGI (U251 CNS): 4.4 µM
- GI50 (UACC-257 melanoma): 2.14 µM
- TGI (UACC-257 melanoma): 3.89 µM
- GI50 (UACC-62 melanoma): 1.82 µM
- TGI (UACC-62 melanoma): 3.43 µM
- GI50 (UO-31 renal): 1.29 µM
- TGI (UO-31 renal): 2.63 µM
